Results from paper PMC6787163, “Systematic Dual Targeting of Dendritic Cell C-Type Lectin Receptor DC-SIGN and TLR7 Using a Trifunctional Mannosylated Antigen” (Frontiers in Chemistry, 2019).
Where “and” joins values, the source holds several entries; their conditions need not be identical. Identical values can stand only once. Entries after “also recorded” stand apart in the source; their conditions may differ. Like-named read-outs stand apart in the source and are kept apart here.

How the values were obtained:
[1] = target: T1, DC-SIGN S-ECD (Homo sapiens, UniProt Q9NNX6); assay: SPR direct interaction assay on oriented DC-SIGN S-ECD surface; type: binding; details: for Kd: SPR direct interaction, oriented tetrameric DC-SIGN ECD surface, apparent Kd
T1 construct: The ECD of DC-SIGN (residues 66–404) was overexpressed and purified as previously described; made in house
T1 sequence (Q9NNX6 66-404): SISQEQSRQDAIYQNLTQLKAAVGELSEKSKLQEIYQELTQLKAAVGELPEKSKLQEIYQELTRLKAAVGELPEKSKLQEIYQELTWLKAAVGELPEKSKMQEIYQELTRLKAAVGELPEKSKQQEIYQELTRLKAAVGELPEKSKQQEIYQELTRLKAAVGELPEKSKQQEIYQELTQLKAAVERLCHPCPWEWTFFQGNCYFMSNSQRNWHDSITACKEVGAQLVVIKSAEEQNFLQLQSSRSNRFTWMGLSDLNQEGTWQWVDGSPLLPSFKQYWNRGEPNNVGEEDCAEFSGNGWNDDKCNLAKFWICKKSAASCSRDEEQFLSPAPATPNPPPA
Procedure, shortened: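 Tetrameric DC-SIGN ECD carrying an N-terminal StrepTagII was captured in oriented form on streptactin (2,500–3,000 RU), with a streptactin-only control cell. Glycoclusters were injected at increasing concentrations (30 μL/min) in Tris pH 8 buffer with 150 mM NaCl and 4 mM CaCl2. Apparent Kd from a 1:1 fit reflects binding to the whole surface.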

[2] = system: moDCs co-cultured with gp100-specific T cells; assay: Antigen presentation by moDCs to gp100-specific T cells (IFNγ ELISA); type: cell-based, human; details: 20 μM conjugate, 30 min pulse, overnight co-culture
Protocol: Lastly, antigen presentation was determined in a human T cell antigen presentation model (Figure 5D). In this assay, the potency of DCs to present the internalized gp100 antigen on the cell surface to gp100-specific T cells is analyzed. The IFNγ secretion of activated T cells upon recognition of the cell surface presented gp100 is measured. Day 5 moDCs were stimulated for 30 min, as the internalization was relatively fast, with the glycopeptides at the assay-optimized concentration of 20 μM (Supplementary Figure 1H). The constructs were washed away before overnight co-culture with gp100-specific T cells. […] The obstruction of antigen presentation was primarily seen with the B6-gp100-TLR7L contradicting the assumption that the best binding constructs will simultaneously maximize T cell activation. […]
Immature day 5 moDCs were seeded in 96-well plates (Greiner) at 50·10^3 cells/well and incubated with 20 μM of the different gp100-conjugates in the presence or absence of the TLR4 ligand LPS (10 ng/mL) or the TLR7 ligand Imiquimod (2.5 μg/mL). […] IFNγ in the supernatant was measured by sandwich ELISA according to the manufacturer's protocol (Biosource), and measured by spectrophotometric analysis on the iMarkTM Microplate Absorbance Reader (Bio-RAD) at 450 nm.

[3] = system: moDCs; assay: Internalization of biotinylated hexavalent clusters by moDCs (flow cytometry); type: cell-based, human
Protocol: For the internalization, the moDCs were incubated with clusters b6, c6, d6, and e6 for 1 h at 4°C, where after unbound ligands were washed away with ice-cold medium. Warm medium was added to the moDCs, and samples were taken at the indicated time points and put on ice. Upon staining the moDCs with fluorophore-conjugated streptavidin, we could measure the signal loss of the membrane via flow cytometry. To exclude ligand-receptor dissociation before internalization, the moDCs were fixed under gentle conditions, hereby inhibiting receptor-mediated endocytosis. On fixed moDCs the clusters remained at the surface, as no signal loss could be detected (Supplementary Figure 1D). […] The di-mannoside clusters (b6, c6, and d6) were internalized relatively fast, with a 50% uptake within 5 min (Figure 5B). The tri-mannoside cluster e6 however remained longer at the membrane surface and only a 25% uptake was seen after 30 min. Similar results were seen using a pH-sensitive fluorophore. In acidic environments, such as the endosomes and lysosomes, the fluorescence of this dye increases. Pre-complexed clusters mirrored the accelerated uptake of the di-mannoside clusters over the e6 cluster (Supplementary Figure 1E). Although the DC-SIGN mediated uptake mechanism is known (Cambi et al., [2009]), the initiation trigger for endocytosis upon DC-SIGN-ligand binding remains unclear. Recognition of the di-mannoside clusters could induce signaling leading to accelerated uptake, whereas the tri-mannoside cluster could trigger a different signaling pathway. Nonetheless, the clusters harboring the smaller mannosides are preferred. Although the binding affinity of the clusters ranged from 0.9 to 6.6 μM, the di-mannosides induce more rapid DC-SIGN internalization over the tri-mannosides, and can thus increase intracellular peptide concentrations more efficiently for further antigen processing and presentation.
Immature day 5 moDCs were harvested and washed with cold HBSS (Thermo Fischer), after which half of the moDCs were gently fixed for 20 min at RT with 1% PFA in PBS. Afterwards, 20 μM of the different biotinylated mannose-clusters in cold HBSS were added. The moDCs were incubated for 1 h on ice, and washed in cold HBSS. Subsequently, warm HBSS was added to the cells, and cells were incubated at 37°C in a shaking heating block. At the indicated time points, a sample of the cells was taken and put on ice. After the last time point, the cells were stained with Streptavidin-Alexa647 (Thermo Fisher), measured using flow cytometry (CyAn™ ADP with Summit™ Software), and further analyzed using FlowJo v10. The same procedure was used for internalization with pHrodo^TM Red Avidin (Thermo Fischer). The different biotinylated mannose-clusters were however incubated with pHrodo-Avidin (ratio 2:1) for 15 min at 37°C, prior to moDC exposure. The fluorescence upon internalization was measured using flow cytometry (BD LSRFortessa™ X-20 with FACSDiva Software), and further analyzed using FlowJo v10.

[4] = system: DC-SIGN on moDC; assay: Binding of biotinylated mannoside library to moDCs by flow cytometry; type: cell-based, human; details: 10 μM biotinylated cluster, 30 min at 4°C, streptavidin staining
Protocol: Next, we assessed the binding of our clusters to cellular DC-SIGN using moDCs (Figure 3B, Supplementary Figure 1B). To this end, binding of the clusters a1–a6, b1–b6, c1–c6, d1–d6, and e1–e6, decorated with a biotin handle, was determined by flow cytometry. Clusters were bound to moDCs for 30 min at 4°C. By staining using fluorophore-conjugated streptavidin and washing at 4°C, the bound clusters could be quantified by flow cytometry. […] In control experiments ligand binding to DC-SIGN was inhibited using a blocking anti-DC-SIGN antibody (Supplementary Figure 1C).
Approximately 10^5 day 5 moDCs were washed and resuspended in 100 μL culture medium (pre-cooled to 4°C). 20 μg/mL AZN-D1 (anti-DC-SIGN, in house Geijtenbeek et al., [2002]) or purified mouse anti-human CD206 antibody (Clone 19.2, BD Bioscience) was added to the moDCs and pre-incubated for 45 min on ice. Subsequently, 10 μM of the biotinylated mannoside clusters or 1 μg/mL of Lewis^Y-conjugated polyacrylamide (positive control) was added, and incubated for 30 min at 4°C. Cells were then washed with pre-cooled PBS (4°C), and stained with Alexa647-labeled streptavidin (Invitrogen^TM) in PBS supplemented with 0.5% BSA and 0.02% NaN3 (PBA) for 30 min at 4°C. Upon washing in ice-cold PBA and fixation in PBS with 0.5% PFA, the fluorescence was measured by flow cytometry (CyAn™ ADP with Summit™ Software), and further analyzed using FlowJo v10.

Structure (SMILES)	decrease of DC-SIGN affinity on conjugation to gp100 or gp100-TLR7L (factor) ([1]; Kd-app of conjugate vs unconjugated cluster)	Kd ([1]; Kdapp)	antigen presentation (IFNγ release of activated gp100-specific T cells) [2]	binding affinity for DC-SIGN relative to B6 (fold lower) [1]	Kd ([1]; read-out: Kdapp)	internalization by moDCs (loss of surface streptavidin signal) ([3]; 20 μM cluster, live moDCs)	uptake by immature moDCs ([3]; after 30 min at 37°C, 20 μM cluster)	internalization by moDCs (pHrodo-avidin fluorescence increase) ([3]; clusters pre-complexed with pH-sensitive dye)	binding to DC-SIGN on moDC [4]
CCCCOc1nc(N)c2[nH]c(=O)n(Cc3ccc(C(=O)NCCOCCOCC(=O)NCCCC[C@H](NC(=O)CNC(=O)[C@H](CCCNC(=N)N)NC(=O)[C@H](Cc4c[nH]c5ccccc45)NC(=O)[C@H](CC)NC(=O)[C@H](CC(=O)O)NC(=O)[C@H](CC(C)C)NC(=O)[C@H](CCCNC(=N)N)NC(=O)[C@H](CCC(N)=O)NC(=O)[C@H](C)NC(=O)[C@H](CCC(=O)O)NC(=O)[C@@H](NC(=O)[C@H](Cc4c[nH]c5ccccc45)NC(=O)[C@H](CCC(=O)O)NC(=O)[C@@H]4CCCN4C(=O)[C@H](Cc4ccc(O)cc4)NC(=O)[C@H](CC(C)C)NC(=O)[C@H](CCC(N)=O)NC(=O)[C@H](CCCNC(=N)N)NC(=O)[C@H](CC(N)=O)NC(=O)[C@H](C)NC(=O)[C@@H](NC(=O)[C@@H](NC(=O)[C@@H]4CCCN4C(=O)CNC(=O)[C@@H]4CCCN4C(=O)[C@H](CCC(=O)O)NC(=O)[C@H](CC(C)C)NC(=O)[C@H](Cc4ccc(O)cc4)NC(=O)[C@@H](NC(=O)[C@H](Cc4c[nH]cn4)NC(=O)[C@@H](NC(=O)[C@@H](NC(=O)[C@H](CCCCn4cc(CCC(=O)NCCCC[C@H](NC(=O)CNC(=O)[C@H](CCCCn5cc(CO[C@H]6O[C@H](CO[C@H]7O[C@H](CO)[C@@H](O)[C@H](O)[C@@H]7O)[C@@H](O)[C@H](O[C@H]7O[C@H](CO)[C@@H](O)[C@H](O)[C@@H]7O)[C@@H]6O)nn5)NC(=O)[C@H](CCCCn5cc(CO[C@H]6O[C@H](CO[C@H]7O[C@H](CO)[C@@H](O)[C@H](O)[C@@H]7O)[C@@H](O)[C@H](O[C@H]7O[C@H](CO)[C@@H](O)[C@H](O)[C@@H]7O)[C@@H]6O)nn5)NC(=O)[C@H](CCCCn5cc(CO[C@H]6O[C@H](CO[C@H]7O[C@H](CO)[C@@H](O)[C@H](O)[C@@H]7O)[C@@H](O)[C@H](O[C@H]7O[C@H](CO)[C@@H](O)[C@H](O)[C@@H]7O)[C@@H]6O)nn5)NC(=O)[C@H](CCCCn5cc(CO[C@H]6O[C@H](CO[C@H]7O[C@H](CO)[C@@H](O)[C@H](O)[C@@H]7O)[C@@H](O)[C@H](O[C@H]7O[C@H](CO)[C@@H](O)[C@H](O)[C@@H]7O)[C@@H]6O)nn5)NC(=O)[C@H](CCCCn5cc(CO[C@H]6O[C@H](CO[C@H]7O[C@H](CO)[C@@H](O)[C@H](O)[C@@H]7O)[C@@H](O)[C@H](O[C@H]7O[C@H](CO)[C@@H](O)[C@H](O)[C@@H]7O)[C@@H]6O)nn5)NC(=O)[C@H](CCCCn5cc(CO[C@H]6O[C@H](CO[C@H]7O[C@H](CO)[C@@H](O)[C@H](O)[C@@H]7O)[C@@H](O)[C@H](O[C@H]7O[C@H](CO)[C@@H](O)[C@H](O)[C@@H]7O)[C@@H]6O)nn5)NC(C)=O)C(N)=O)nn4)NC(C)=O)C(C)C)[C@@H](C)O)[C@@H](C)O)C(C)C)[C@@H](C)O)[C@@H](C)O)C(N)=O)cc3)c2n1 [E6-gp100-TLR7L]	about 10	31000 nM	increased T cell activation; also recorded: strongest antigen presentation						
CC(=O)N[C@@H](CCCCn1cc(CO[C@H]2O[C@H](CO[C@H]3O[C@H](CO)[C@@H](O)[C@H](O)[C@@H]3O)[C@@H](O)[C@H](O[C@H]3O[C@H](CO)[C@@H](O)[C@H](O)[C@@H]3O)[C@@H]2O)nn1)C(=O)N[C@@H](CCCCn1cc(CO[C@H]2O[C@H](CO[C@H]3O[C@H](CO)[C@@H](O)[C@H](O)[C@@H]3O)[C@@H](O)[C@H](O[C@H]3O[C@H](CO)[C@@H](O)[C@H](O)[C@@H]3O)[C@@H]2O)nn1)C(=O)N[C@@H](CCCCn1cc(CO[C@H]2O[C@H](CO[C@H]3O[C@H](CO)[C@@H](O)[C@H](O)[C@@H]3O)[C@@H](O)[C@H](O[C@H]3O[C@H](CO)[C@@H](O)[C@H](O)[C@@H]3O)[C@@H]2O)nn1)C(=O)N[C@@H](CCCCn1cc(CO[C@H]2O[C@H](CO[C@H]3O[C@H](CO)[C@@H](O)[C@H](O)[C@@H]3O)[C@@H](O)[C@H](O[C@H]3O[C@H](CO)[C@@H](O)[C@H](O)[C@@H]3O)[C@@H]2O)nn1)C(=O)N[C@@H](CCCCn1cc(CO[C@H]2O[C@H](CO[C@H]3O[C@H](CO)[C@@H](O)[C@H](O)[C@@H]3O)[C@@H](O)[C@H](O[C@H]3O[C@H](CO)[C@@H](O)[C@H](O)[C@@H]3O)[C@@H]2O)nn1)C(=O)N[C@@H](CCCCn1cc(CO[C@H]2O[C@H](CO[C@H]3O[C@H](CO)[C@@H](O)[C@H](O)[C@@H]3O)[C@@H](O)[C@H](O[C@H]3O[C@H](CO)[C@@H](O)[C@H](O)[C@@H]3O)[C@@H]2O)nn1)C(=O)NCC(=O)N[C@@H](CCCCN)C(N)=O [E6]				3 fold	2780 nM and 2700 nM	remains longer at the surface	25%	endocytosed at lower rate	did not observe an increase in binding
